Measured values from US4547492A, “1-N-(ω-Amino-α-hydroxyalkanoyl-2',3'-dideoxykanamycin A and pharmaceutical composition containing same” (Zaidan Hojin Biseibutsu Kagaku Kenkyu Kai, priority 1983, dated 1985).
Converted amounts (≈) assume the structure as drawn. Read-outs that look alike come from different tables or passages of the source.

Assays:
[1] = test system: Staphylococcus aureus 209P; assay: MIC, serial dilution on nutrient agar; format: cell-based; conditions: S. aureus 209P, 37° C., 18 hours
Experimental: (§1) For comparison purpose, the minimum inhibitory concentrations (MIC.) of 1-N-(L-4-amino-2-hydroxybutyryl)-kanamycin A, namely amikacin and of 2',3'-dideoxykanamycin A (abbreviated as DKA) are also shown in Table 1.
(§2) The minimum inhibitory concentrations (mcg/ml) of these kanamycin A derivatives against the various bacteria were determined according to a standard serial dilution method on a nutrient agar medium at 37° C., the estimation being made after 18 hours incubation.

Escherichia coli ML 1629 = assay: MIC, serial dilution on nutrient agar; format: cell-based
Experimental: as §1, §2

[2] = test system: Serratia marcescens I-0162; assay: MIC, serial dilution on nutrient agar; format: cell-based
Experimental: as §1, §2

[3] = test system: Staphylococcus aureus Ap 01; assay: MIC, serial dilution on nutrient agar; format: cell-based
Experimental: as §1, §2

[4] = test system: Serratia marcescens I-0111; assay: MIC, serial dilution on nutrient agar; format: cell-based
Experimental: as §1, §2

[5] = test system: Pseudomonas aeruginosa K-Ps 102; assay: MIC, serial dilution on nutrient agar; format: cell-based
Experimental: as §1, §2

Proteus rettgeri GN 311 = assay: MIC, serial dilution on nutrient agar; format: cell-based; conditions: Providencia rettgeri, GN311, 37° C., 18 hours
Experimental: as §1, §2

[6] = test system: Bacillus subtilis PCI 219; assay: MIC, serial dilution on nutrient agar; format: cell-based; conditions: PCI219, B. subtilis PCI 219, 37° C., 18 hours
Experimental: as §1, §2

Escherichia coli ML R 81 = assay: MIC, serial dilution on nutrient agar; format: cell-based
Experimental: as §1, §2

[7] = test system: Pseudomonas aeruginosa A3; assay: MIC, serial dilution on nutrient agar; format: cell-based; conditions: P. aeruginosa A3, 37° C., 18 hours
Experimental: as §1, §2

[8] = test system: Serratia marcescens I-0139; assay: MIC, serial dilution on nutrient agar; format: cell-based; conditions: I0139, S. marcescens I-0139, 37° C., 18 hours
Experimental: as §1, §2

[9] = test system: Pseudomonas aeruginosa H9; assay: MIC, serial dilution on nutrient agar; format: cell-based
Experimental: as §1, §2

[10] = test system: Serratia marcescens I-0115; assay: MIC, serial dilution on nutrient agar; format: cell-based
Experimental: as §1, §2

Escherichia coli ML 1630 = assay: MIC, serial dilution on nutrient agar; format: cell-based; conditions: ML1630, E. coli ML 1630, 37° C., 18 hours
Experimental: as §1, §2

Serratia sp. 4 = assay: MIC, serial dilution on nutrient agar; format: cell-based; conditions: 37° C., 18 hours
Experimental: as §1, §2

[11] = test system: Pseudomonas aeruginosa B-13; assay: MIC, serial dilution on nutrient agar; format: cell-based
Experimental: as §1, §2

Escherichia coli J5R11-2 = assay: microbe, parasite or virus in culture; conditions: J5R112, 18 h
Experimental: as §1, §2

[12] = acute toxicity by intravenous injection in mice; conditions: mouse, in vivo
[13] = ML1629, E. coli ML 1629, nutrient agar, 37° C., 18 hours, read-out: MIC.
[14] = AP01, S. aureus Ap 01, nutrient agar, 37° C., 18 hours, read-out: MIC.
[15] = MLR81, E. coli ML R 81, nutrient agar, 37° C., 18 hours, read-out: MIC.
[16] = P. aeruginosa H9, nutrient agar, 37° C., 18 hours, read-out: MIC.
[17] = I0111, S. marcescens I-0111, nutrient agar, 37° C., 18 hours, read-out: MIC.
[18] = I0115, S. marcescens I-0115, nutrient agar, 37° C., 18 hours, read-out: MIC.

SMILES	MIC [1] [µg/mL]	MIC (Escherichia coli ML 1629; [13]) [µg/mL]	MIC ([2]; I0162, 18 h) [µg/mL]	MIC [3, 14] [µg/mL]	MIC ([5]; KPS102, 18 h) [µg/mL]	MIC (Proteus rettgeri GN 311) [µg/mL]	MIC [6] [µg/mL]	MIC (Escherichia coli ML R 81; [15]) [µg/mL]	MIC [7] [µg/mL]	MIC [8] [µg/mL]	MIC [9, 16] [µg/mL]	MIC (Escherichia coli ML 1630) [µg/mL]	MIC (Serratia sp. 4) [µg/mL]	MIC ([11]; B13, 18 h) [µg/mL]	MIC (Escherichia coli J5R11-2) [µg/mL]	LD50 [12] [mg/kg]	MIC [4, 17] [µg/mL]	MIC [10, 18] [µg/mL]	further results
NCC[C@H](O)C(=O)N[C@@H]1C[C@H](N)[C@@H](O[C@@H]2CC[C@H](O)[C@@H](CN)O2)[C@H](O)[C@H]1O[C@H]1O[C@H](CO)[C@@H](O)[C@H](N)[C@H]1O [AHDK]	0.1 (≈ 0.181 µM)	1.56 (≈ 2.82 µM)	6.25 (≈ 11.3 µM)	0.39 (≈ 0.704 µM)	6.25 (≈ 11.3 µM)	0.39 (≈ 0.704 µM)	0.2 (≈ 0.361 µM)	1.56 (≈ 2.82 µM)	0.78 (≈ 1.41 µM)	12.5 (≈ 22.6 µM)	3.13 (≈ 5.65 µM)	1.56 (≈ 2.82 µM)	1.56 (≈ 2.82 µM)	12.5 (≈ 22.6 µM)	0.78 (≈ 1.41 µM)	326			MIC ([4]; I0111, 18 h): 6.25 µg/mL (≈ 11.3 µM); MIC ([10]; I0115, 18 h): 6.25 µg/mL (≈ 11.3 µM)
NCC[C@H](O)C(=O)N[C@@H]1C[C@H](N)[C@@H](O[C@H]2O[C@H](CN)[C@@H](O)[C@H](O)[C@H]2O)[C@H](O)[C@H]1O[C@H]1O[C@H](CO)[C@@H](O)[C@H](N)[C@H]1O [Amikacin, 1-N-(L-4-amino-2-hydroxybutyryl)-kanamycin A, reference compound]	0.78 (≈ 1.33 µM)					0.39 (≈ 0.666 µM)	0.39 (≈ 0.666 µM)		< 0.2	100 (≈ 171 µM)	6.25 (≈ 10.7 µM)	3.13 (≈ 5.34 µM)	3.13 (≈ 5.34 µM)		1.56 (≈ 2.66 µM)		25 (≈ 42.7 µM)	50 (≈ 85.4 µM)	MIC (Escherichia coli ML 1629; ML1629, 18 h): 1.56 µg/mL (≈ 2.66 µM); MIC ([2]; I0162, S. marcescens I-0162, nutrient agar, 37° C., 18 hours, read-out: MIC.): 50 µg/mL (≈ 85.4 µM); MIC ([3]; AP01, 18 h): 1.56 µg/mL (≈ 2.66 µM); MIC ([5]; KPS102, P. aeruginosa K-Ps 102, nutrient agar, 37° C., 18 hours, read-out: MIC.): 6.25 µg/mL (≈ 10.7 µM); MIC (Escherichia coli ML R 81; MLR81, 18 h): 1.56 µg/mL (≈ 2.66 µM); MIC ([11]; B13, P. aeruginosa B-13, nutrient agar, 37° C., 18 hours, read-out: MIC.): 6.25 µg/mL (≈ 10.7 µM)
NC[C@H]1O[C@H](O[C@H]2[C@H](O)[C@@H](O[C@H]3O[C@H](CO)[C@@H](O)[C@H](N)[C@H]3O)[C@H](N)C[C@@H]2N)CC[C@@H]1O [DKA, 2',3'-dideoxykanamycin A]	1.56 (≈ 3.45 µM)	1.56 (≈ 3.45 µM)		3.13 (≈ 6.92 µM)	6.25 (≈ 13.8 µM)		0.39 (≈ 0.862 µM)	3.13 (≈ 6.92 µM)	1.56 (≈ 3.45 µM)			3.13 (≈ 6.92 µM)		12.5 (≈ 27.6 µM)	3.12 (≈ 6.89 µM)				MIC ([9]; H9, 18 h): 6.25 µg/mL (≈ 13.8 µM)
NC[C@H](O)C(=O)N[C@@H]1C[C@H](N)[C@@H](O[C@@H]2CC[C@H](O)[C@@H](CN)O2)[C@H](O)[C@H]1O[C@H]1O[C@H](CO)[C@@H](O)[C@H](N)[C@H]1O [ISDK, 1-N-(L-3-amino-2-hydroxy-propionyl)-2',3'-dideoxykanamycin A]	0.2 (≈ 0.371 µM)	1.56 (≈ 2.89 µM)	6.25 (≈ 11.6 µM)	0.78 (≈ 1.45 µM)	6.25 (≈ 11.6 µM)	0.39 (≈ 0.723 µM)	0.39 (≈ 0.723 µM)	1.56 (≈ 2.89 µM)	0.78 (≈ 1.45 µM)	6.25 (≈ 11.6 µM)	3.13 (≈ 5.8 µM)	3.13 (≈ 5.8 µM)	1.56 (≈ 2.89 µM)	12.5 (≈ 23.2 µM)	0.78 (≈ 1.45 µM)	240	3.13 (≈ 5.8 µM)	3.13 (≈ 5.8 µM)	
